Earlier results, collected in patent publication US20120058151A1, “NANOPARTICULATE COMPOSITIONS OF POORLY SOLUBLE COMPOUNDS” (CAPSULUTION PHARMA AG, priority 2008, published 2012).

solubility in water: practically insoluble in water
SMILES: CCOc1nc2cccc(C(=O)OC(C)OC(=O)OC3CCCCC3)c2n1Cc1ccc(-c2ccccc2-c2nnn[nH]2)cc1 (stereo not shown) [candesartan cilexetil]
